# ChEMBL document CHEMBL4190162, “SAR and identification of 2-(quinolin-4-yloxy)acetamides as Mycobacterium tuberculosis cytochrome bc1 inhibitors” (Medchemcomm, 2016)
# The source made the active and inactive calls. The rule behind the calls is not given here.
# What was measured:
# [1] = test system: Mycobacterium tuberculosis; test: Antimycobacterial activity against Mycobacterium tuberculosis H37Rv measured after 2 weeks; format: functional; settings: 336 h
# [2] = test system: Staphylococcus aureus; test: Antibacterial activity against Staphylococcus aureus XEN36; format: functional, organism-based
# [3] = test system: Mycobacterium tuberculosis; test: Antimycobacterial activity against Mycobacterium tuberculosis H37Rv measured after 1 week; format: functional; settings: 168 h
# [4] = test system: Mycobacterium tuberculosis; test: Antimycobacterial activity against Mycobacterium tuberculosis H37Rv after 2 weeks by microplate alamar blue assay; format: functional; settings: 336 h
# [5] = test system: Escherichia coli; test: Antibacterial activity against Escherichia coli 25922; format: functional, organism-based; settings: ATCC 25922
# [6] = Cytotoxicity against human HepG2 cells after 24 to 48 hrs in presence of glucose by trypan blue dye-based hemocytometric method; format: cell-based
# [7] = test system: Mycobacterium tuberculosis H37Rv; test: Inhibition of Mycobacterium tuberculosis H37Rv cytochrome bc1 oxidase assessed as reduction in ATP level measured up to 24 hrs under anaerobic condition
# [8] = test system: Mycobacterium tuberculosis; test: Antimycobacterial activity against Mycobacterium tuberculosis H37Rv BSG001; format: functional, organism-based
# [9] = Cytotoxicity against human HepG2 cells after 24 to 48 hrs in presence of galactose by trypan blue dye-based hemocytometric method; format: cell-based
# [10] = test system: Mycolicibacterium smegmatis; test: Antibacterial activity against Mycobacterium smegmatis; format: functional, organism-based
# [11] = test system: Mycobacteroides abscessus; test: Antibacterial activity against Mycobacterium abscessus; format: functional, organism-based
smiles,measurement,setting,value
COc1ccc2nc(C)cc(OCC(=O)Nc3cccc(Br)c3)c2c1,MIC,[1],> 125 µM
same,Activity,[2],inactive
same,MIC,[3],92.2 µM
same,MIC,[4],> 125 µM
same,Activity,[5],inactive
same,CC50,[6],> 125 µM
same,inhibition,[7],Active
same,Activity,[8],inactive
same,CC50,[9],> 125 µM
same,Activity,[10],inactive
same,Activity,[11],inactive
COc1ccccc1NC(=O)COc1cc(C)nc2ccc(Br)cc12,MIC,[1],> 125 µM
same,Activity,[2],inactive
same,MIC,[3],23.4 µM
same,MIC,[4],> 125 µM
same,Activity,[5],inactive
same,CC50,[6],> 125 µM
same,inhibition,[7],Active
same,Activity,[8],inactive
same,CC50,[9],> 125 µM
same,Activity,[10],inactive
same,Activity,[11],inactive
COc1ccc2nc(C)cc(OCC(=O)Nc3ccc(Br)cc3)c2c1,MIC,[1],> 125 µM
same,Activity,[2],inactive
same,MIC,[3],> 125 µM
same,MIC,[4],1.94 µM
same,Activity,[5],inactive
same,CC50,[6],> 125 µM
same,inhibition,[7],Active
same,Activity,[8],inactive
same,CC50,[9],> 125 µM
same,Activity,[10],inactive
same,Activity,[11],inactive
COc1ccc2nc(C)cc(OCC(=O)Nc3ccc(Cl)cc3)c2c1,MIC,[1],> 140 µM
same,Activity,[2],inactive
same,MIC,[3],104 µM
same,MIC,[4],3.36 µM
same,Activity,[5],inactive
same,CC50,[6],89.9 µM
same,inhibition,[7],Active
same,Activity,[8],inactive
same,CC50,[9],71.1 µM
same,Activity,[10],inactive
same,Activity,[11],inactive
Nc1ccc(C(=O)O)c(O)c1 [AMINOSALICYLIC ACID],MIC,[1],0.6 µM
same,MIC,[3],0.3 µM
same,MIC,[4],0.3 µM
COc1ccc2nc(C)cc(OCC(=O)Nc3ccccc3Cl)c2c1,MIC,[1],53.2 µM
same,Activity,[2],inactive
same,MIC,[3],26.4 µM
same,MIC,[4],0.56 µM
same,Activity,[5],inactive
same,CC50,[6],> 140 µM
same,inhibition,[7],Active
same,Activity,[8],inactive
same,CC50,[9],> 140 µM
same,Activity,[10],inactive
same,Activity,[11],inactive
COc1cc(NC(=O)COc2cc(C)nc3ccc(OC)cc23)cc(OC)c1,MIC,[1],> 131 µM
same,Activity,[2],inactive
same,MIC,[3],> 131 µM
same,MIC,[4],24.6 µM
same,Activity,[5],inactive
same,CC50,[6],> 131 µM
same,inhibition,[7],Active
same,Activity,[8],inactive
same,CC50,[9],> 131 µM
same,Activity,[10],inactive
same,Activity,[11],inactive
COc1ccccc1NC(=O)COc1cc(C)nc2ccc(C)cc12,MIC,[1],> 74 µM
same,Activity,[2],inactive
same,MIC,[3],56.5 µM
same,MIC,[4],9.3 µM
same,Activity,[5],inactive
same,CC50,[6],> 74 µM
same,inhibition,[7],Active
same,Activity,[8],inactive
same,CC50,[9],> 74 µM
same,Activity,[10],inactive
same,Activity,[11],inactive
COc1ccc(NC(=O)COc2cc(C)nc3ccc(OC)cc23)cc1,MIC,[1],> 142 µM
same,Activity,[2],inactive
same,MIC,[3],2.21 µM
same,MIC,[4],1.11 µM
same,Activity,[5],inactive
same,CC50,[6],> 142 µM
same,inhibition,[7],Active
same,Activity,[8],inactive
same,CC50,[9],> 142 µM
same,Activity,[10],inactive
same,Activity,[11],inactive
CC(=O)NC[C@H]1CN(c2ccc(N3CCOCC3)c(F)c2)C(=O)O1 [LINEZOLID],MIC,[1],2.3 µM
same,MIC,[3],2.3 µM
same,MIC,[4],2.3 µM
same,inhibition,[7],inactive
COc1ccc(NC(=O)COc2cc(C)nc3ccc(OC)cc23)c(OC)c1,MIC,[1],32.7 µM
same,Activity,[2],inactive
same,MIC,[3],24.6 µM
same,MIC,[4],2.04 µM
same,Activity,[5],inactive
same,CC50,[6],> 131 µM
same,inhibition,[7],Active
same,Activity,[8],inactive
same,CC50,[9],> 131 µM
same,Activity,[10],inactive
same,Activity,[11],inactive
COc1nc2ccc(Br)cc2cc1[C@@H](c1ccccc1)[C@@](O)(CCN(C)C)c1cccc2ccccc12,inhibition,[7],Active
COc1ccc2nc(C)cc(OCC(=O)Nc3ccc(-c4ccccc4)cc3)c2c1,MIC,[1],> 125 µM
same,Activity,[2],inactive
same,MIC,[3],> 125 µM
same,MIC,[4],1.51 µM
same,Activity,[5],inactive
same,CC50,[6],> 126 µM
same,inhibition,[7],Active
same,Activity,[8],inactive
same,CC50,[9],> 126 µM
same,Activity,[10],inactive
same,Activity,[11],inactive
COc1ccccc1NC(=O)COc1cc(C)nc2ccccc12,MIC,[1],> 155 µM
same,Activity,[2],inactive
same,MIC,[3],38.8 µM
same,MIC,[4],> 78 µM
same,Activity,[5],inactive
same,CC50,[6],43.9 µM
same,inhibition,[7],Active
same,Activity,[8],inactive
same,CC50,[9],8.64 µM
same,Activity,[10],inactive
same,Activity,[11],inactive
COc1ccc2nc(C)cc(OCC(=O)NCCc3ccccc3)c2c1,MIC,[1],> 143 µM
same,Activity,[2],inactive
same,MIC,[3],143 µM
same,MIC,[4],54.2 µM
same,Activity,[5],inactive
same,CC50,[6],61.4 µM
same,inhibition,[7],Active
same,Activity,[8],inactive
same,CC50,[9],83.9 µM
same,Activity,[10],inactive
same,Activity,[11],inactive
COc1ccc2nc(C)cc(OCC(=O)NCCc3ccc4c(c3)OCO4)c2c1,MIC,[1],> 127 µM
same,Activity,[2],inactive
same,MIC,[3],≥ 127 µM
same,MIC,[4],31.7 µM
same,Activity,[5],inactive
same,CC50,[6],> 127 µM
same,inhibition,[7],Active
same,Activity,[8],inactive
same,CC50,[9],> 127 µM
same,Activity,[10],inactive
same,Activity,[11],inactive
COc1ccc2nc(C)cc(OCC(=O)Nc3ccc(OC)c(OC)c3)c2c1,MIC,[1],> 131 µM
same,Activity,[2],inactive
same,MIC,[3],> 131 µM
same,MIC,[4],24.6 µM
same,Activity,[5],inactive
same,CC50,[6],> 131 µM
same,inhibition,[7],Active
same,Activity,[8],inactive
same,CC50,[9],> 131 µM
same,Activity,[10],inactive
same,Activity,[11],inactive
CCCCCNC(=O)COc1cc(C)nc2ccc(OC)cc12,MIC,[1],158 µM
same,Activity,[2],inactive
same,MIC,[3],158 µM
same,MIC,[4],19.8 µM
same,Activity,[5],inactive
same,CC50,[6],> 158 µM
same,inhibition,[7],Active
same,Activity,[8],inactive
same,CC50,[9],106 µM
same,Activity,[10],inactive
same,Activity,[11],inactive
COc1ccc(OC)c(CCNC(=O)COc2cc(C)nc3ccc(OC)cc23)c1,MIC,[1],> 122 µM
same,Activity,[2],inactive
same,MIC,[3],122 µM
same,MIC,[4],60.9 µM
same,Activity,[5],inactive
same,CC50,[6],> 122 µM
same,inhibition,[7],Active
same,Activity,[8],inactive
same,CC50,[9],> 122 µM
same,Activity,[10],inactive
same,Activity,[11],inactive
COc1ccc2nc(C)cc(OCC(=O)NCCCc3ccccc3)c2c1,MIC,[1],68.6 µM
same,Activity,[2],inactive
same,MIC,[3],68.6 µM
same,MIC,[4],25.8 µM
same,Activity,[5],inactive
same,CC50,[6],> 137 µM
same,inhibition,[7],Active
same,Activity,[8],inactive
same,CC50,[9],50.7 µM
same,Activity,[10],inactive
same,Activity,[11],inactive
COc1ccc2nc(C)cc(OCC(=O)Nc3ccccc3)c2c1,MIC,[1],> 155 µM
same,Activity,[2],inactive
same,MIC,[3],1.21 µM
same,MIC,[4],0.62 µM
same,Activity,[5],inactive
same,CC50,[6],> 155 µM
same,inhibition,[7],Active
same,Activity,[8],inactive
same,CC50,[9],118 µM
same,Activity,[10],inactive
same,Activity,[11],inactive
COc1ccc2nc(C)cc(OCC(=O)NCCc3ccc(OC)c(OC)c3)c2c1,MIC,[1],> 122 µM
same,Activity,[2],inactive
same,MIC,[3],> 122 µM
same,MIC,[4],122 µM
same,Activity,[5],inactive
same,CC50,[6],> 122 µM
same,inhibition,[7],Active
same,Activity,[8],inactive
same,CC50,[9],> 122 µM
same,Activity,[10],inactive
same,Activity,[11],inactive
COc1ccc2nc(C)cc(OCC(=O)Nc3ccc(C)cc3)c2c1,MIC,[1],> 149 µM
same,Activity,[2],inactive
same,MIC,[3],0.45 µM
same,MIC,[4],0.45 µM
same,Activity,[5],inactive
same,CC50,[6],> 149 µM
same,inhibition,[7],Active
same,Activity,[8],inactive
same,CC50,[9],41.5 µM
same,Activity,[10],inactive
same,Activity,[11],inactive
COCCNC(=O)COc1cc(C)nc2ccc(OC)cc12,MIC,[1],> 164 µM
same,Activity,[2],inactive
same,MIC,[3],> 164 µM
same,MIC,[4],122 µM
same,Activity,[5],inactive
same,CC50,[6],> 164 µM
same,inhibition,[7],Active
same,Activity,[8],inactive
same,CC50,[9],> 164 µM
same,Activity,[10],inactive
same,Activity,[11],inactive
COc1ccccc1NC(=O)COc1cc(C)nc2ccc(Cl)cc12,MIC,[1],> 140 µM
same,Activity,[2],inactive
same,MIC,[3],26.4 µM
same,MIC,[4],104 µM
same,Activity,[5],inactive
same,CC50,[6],140 µM
same,inhibition,[7],Active
same,Activity,[8],inactive
same,CC50,[9],99.2 µM
same,Activity,[10],inactive
same,Activity,[11],inactive
COc1cccc(NC(=O)COc2cc(C)nc3ccc(OC)cc23)c1,MIC,[1],> 142 µM
same,Activity,[2],inactive
same,MIC,[3],142 µM
same,MIC,[4],6.53 µM
same,Activity,[5],inactive
same,CC50,[6],43 µM
same,inhibition,[7],Active
same,Activity,[8],inactive
same,CC50,[9],24.7 µM
same,Activity,[10],inactive
same,Activity,[11],inactive
CCCCCC[C@H]1C(=O)O[C@H](C)[C@H](NC(=O)c2cccc(NC=O)c2O)C(=O)O[C@@H](C)[C@@H]1OC(=O)CC(C)C [ANTIMYCIN A],CC50,[6],> 50 µM
same,CC50,[9],0.017 µM
c1ccc(Cn2cnc3c(-c4ccco4)nccc32)cc1,MIC,[1],> 25 µM
same,MIC,[3],12.5 µM
same,MIC,[4],1.56 µM
same,CC50,[6],> 25 µM
same,inhibition,[7],Active
same,CC50,[9],> 25 µM
